Measurements from patent US9062119B2, “Modified peptide toxins” (University of Debrecen, priority 2011, dated 2015).
Like-named read-outs stand apart in the source and are kept apart here. Where a SMILES comes first, the peptide text is derived from it.

Columns and labels:
[1] = biological target: T1, Kv1.3 channels (Homo sapiens, UniProt P22001); assay: Whole-cell patch-clamp block of Kv1.3 currents in activated human peripheral T lymphocytes; assay type: cell-based
T1 construct: endogenous in cells
T1 sequence (P22001 whole entry): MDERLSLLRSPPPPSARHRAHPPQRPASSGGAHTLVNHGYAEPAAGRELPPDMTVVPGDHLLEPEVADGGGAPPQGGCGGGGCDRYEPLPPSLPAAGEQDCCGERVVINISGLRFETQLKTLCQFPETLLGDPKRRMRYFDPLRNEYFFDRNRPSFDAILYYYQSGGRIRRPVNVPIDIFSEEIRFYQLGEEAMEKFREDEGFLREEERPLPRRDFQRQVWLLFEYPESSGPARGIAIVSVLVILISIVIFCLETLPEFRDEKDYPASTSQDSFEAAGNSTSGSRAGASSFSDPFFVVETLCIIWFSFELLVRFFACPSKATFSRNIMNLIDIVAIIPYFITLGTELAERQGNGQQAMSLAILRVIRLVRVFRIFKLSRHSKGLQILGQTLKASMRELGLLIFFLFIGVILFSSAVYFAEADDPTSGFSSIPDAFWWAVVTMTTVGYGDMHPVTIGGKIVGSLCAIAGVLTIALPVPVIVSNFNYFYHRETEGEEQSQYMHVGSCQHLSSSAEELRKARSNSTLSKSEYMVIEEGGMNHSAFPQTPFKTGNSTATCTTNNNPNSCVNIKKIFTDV
Procedure: (§1) Dose-response relationships of the synthetic wild-type toxin and the single and double mutants on Kv1.3 channels The blocking efficiency of the toxins was tested on activated lymphocytes. The remaining current fraction (RCF) was calculated as I/I0, where I and I0 represent the whole-cell current amplitude in the presence and absence of the toxin at the indicated concentrations, respectively. Data points are plotted with error bars representing SEM and were fitted with a Hill-equation to obtain the Kd of the binding.
(§2) Kv1.3 currents were measured in human peripheral T lymphocytes. Heparinized human peripheral venous blood was obtained from healthy volunteers. Mononuclear cells were separated by Ficoll-Hypaque density gradient centrifugation. Collected cells were washed twice with Ca^2+ and Mg^2+ free Hank's solution containing 25 mM HEPES buffer (pH 7.4). Cells were cultured in a 5% CO2 incubator at 37° C. in 24 well culture plates in RPMI-1640 supplements with 10% FCS (Sigma-Aldrich, Hungary) 100 μg/ml penicillin, 100 μg/ml streptomycin and 2 mM L-glutamine at 0.5×10^6/ml density for 3-4 days. The culture medium also contained 2.5 or 5 μg/ml of phytohemagglutinin A (PHA-P, Sigma-Aldrich Kft, Hungary) to increase K^+ channel expression [Bagdany M, et al. Mol Pharmacol 2005; 67:1034-1044].
(§3) Whole-cell currents were measured in voltage-clamped cells using Axopatch 200A and Multiclamp 700B amplifiers connected to a personal computer using Axon Digidata 1200 and 1322A data acquisition hardware, respectively (Molecular Devices Inc., Sunnyvale, Calif.). Series resistance compensation up to 70% was used to minimize voltage errors and achieve good voltage-clamp conditions. […] The measured osmolarity of the external solutions was between 302 and 308 mOsm. […] The measured osmolarity of the internal solutions was approximately 295 mOsm. Bath perfusion around the measured cell with different test solutions was achieved using a gravity-flow perfusion system. […]

[2] = test system: Kv1.3 channels; assay: as above; assay type: cell-based
Procedure: as §1, §2, §3

[3] = biological target: T2, hKv1.2 (Homo sapiens, UniProt P16389); conditions: natural toxin, Bagdany et al., 2005, read-out: Kd for Kv1.2, cited from earlier work
T2 construct: expressed in transfected cells; host or cells: Cos-7 cells, co-transfected with a separate GFP plasmid
T2 sequence (P16389 whole entry): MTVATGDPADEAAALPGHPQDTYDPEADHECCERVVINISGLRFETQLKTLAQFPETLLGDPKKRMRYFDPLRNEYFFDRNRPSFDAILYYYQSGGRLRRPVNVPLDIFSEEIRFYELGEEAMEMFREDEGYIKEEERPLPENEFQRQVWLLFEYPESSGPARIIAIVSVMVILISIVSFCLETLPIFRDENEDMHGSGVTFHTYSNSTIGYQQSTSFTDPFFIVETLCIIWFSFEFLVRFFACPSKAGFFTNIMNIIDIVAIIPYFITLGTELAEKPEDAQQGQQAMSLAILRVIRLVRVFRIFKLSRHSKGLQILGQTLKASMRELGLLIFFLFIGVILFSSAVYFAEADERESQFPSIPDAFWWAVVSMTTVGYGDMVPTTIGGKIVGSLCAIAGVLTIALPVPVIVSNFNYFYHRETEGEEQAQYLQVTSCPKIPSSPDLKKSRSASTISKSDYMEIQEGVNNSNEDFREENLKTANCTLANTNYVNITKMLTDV

[4] = biological target: T1, Kv1.3 channels; conditions: natural toxin, Bagdany et al., 2005; cited from earlier work
[5] = test system: Kv1.3; assay: Literature block of Kv1.3 by ADWX-1
Description: Han, S et al. have applied a structural approach [Han S et al, J Biol Chem 2008; 283(27):19058-19065.] to improve Kv1.3 selectivity of scorpion toxins. The authors started from the BmKTX scorpion toxin (Bhutus martensi) and designed a peptide with three point mutations based on binding studies to the Kv1.3 K channel at the molecular interaction level. Specifically, glycine (G) 11 was substituted with arginine (R), isoleucine (I) 28 with threonine (T) and aspartate (D) 33 with histidine (H) (BmKTX-Arg11Thr28His33 or ADWX-1 in short). […] 2009 231(1): 59-87.].

[6] = test system: Kv1.3; conditions: found by Cahalan and Chandy 2009; read-out: IC50 for block of Kv1.3; cited from earlier work

CSCC[C@@H]1NC(=O)[C@@H]2CSSC[C@H](NC(=O)[C@H](CCC(=O)O)NC(=O)[C@H](CCCCN)NC(=O)[C@H](CC(N)=O)NC(=O)[C@H](C)NC(=O)[C@H](C)NC(=O)[C@H](C)N)C(=O)N[C@@H]([C@@H](C)O)C(=O)NCC(=O)N3CCC[C@H]3C(=O)N[C@@H](CCC(N)=O)C(=O)N[C@@H](Cc3c[nH]cn3)C(=O)N[C@H]3CSSC[C@H](NC(=O)[C@H](CCCCN)NC(=O)[C@H](CCCNC(=N)N)NC(=O)[C@H](CC(N)=O)NC1=O)C(=O)N[C@@H](CCCCN)C(=O)N[C@H]1CSSC[C@H](NC(=O)[C@H](Cc4ccccc4)NC(=O)[C@H](CC(N)=O)NC(=O)[C@H]([C@@H](C)O)NC3=O)C(=O)N[C@@H](CCCNC(=N)N)C(=O)N[C@@H](CC(=O)O)C(=O)N[C@@H](C)C(=O)N[C@@H](CCCCN)C(=O)N[C@@H](CSSC[C@@H](C(=O)N[C@@H](CCCCN)C(=O)O)NC(=O)[C@H](CC(N)=O)NC(=O)[C@H]([C@@H](C)O)NC1=O)C(=O)N[C@@H]([C@@H](C)O)C(=O)N[C@@H](Cc1c[nH]cn1)C(=O)NCC(=O)N[C@@H](CCCCN)C(=O)N2 [(N-AAAN, K16D, N17A, F32T)] (HELM PEPTIDE1{A.A.A.N.K.E.C.T.G.P.Q.H.C.T.N.F.C.R.D.A.K.C.T.H.G.K.C.M.N.R.K.C.K.C.T.N.C.K}$PEPTIDE1,PEPTIDE1,7:R3-27:R3|PEPTIDE1,PEPTIDE1,13:R3-32:R3|PEPTIDE1,PEPTIDE1,17:R3-34:R3|PEPTIDE1,PEPTIDE1,22:R3-37:R3$$$V2.0; N-terminus and C-terminus assumed; bridges inferred)
Kd [1]: 394 nM

Anuroctoxin [natural toxin]
selectivity ratio SR=Kd[1.2]/Kd[1.3] [2]: 9 | selectivity for Kv1.3 over Kv1.2 ([2]; ratio of Kd,Kv1.2 and Kd,Kv1.3): 9 fold | Kd ([3]; listed as Anuroctoxin): 6.14 nM | Kd [3]: 6.1 nM | Kd [4]: 0.73 nM

BmKTX-Arg11Thr28His33 [ADWX-1]
lower potency of Cahalan/Chandy value versus Han value [5]: 1000 fold | IC50 [6]: 1.2 nM
